Test results reported in ChEMBL document CHEMBL1133837, “Discovery of selective hydroxamic acid inhibitors of tumor necrosis factor-alpha converting enzyme” (Bioorg Med Chem Lett, 2001).

Columns and labels:
Interstitial collagenase = biological target: T1, Interstitial collagenase (Homo sapiens, UniProt P03956)
T1 sequence (P03956 whole entry): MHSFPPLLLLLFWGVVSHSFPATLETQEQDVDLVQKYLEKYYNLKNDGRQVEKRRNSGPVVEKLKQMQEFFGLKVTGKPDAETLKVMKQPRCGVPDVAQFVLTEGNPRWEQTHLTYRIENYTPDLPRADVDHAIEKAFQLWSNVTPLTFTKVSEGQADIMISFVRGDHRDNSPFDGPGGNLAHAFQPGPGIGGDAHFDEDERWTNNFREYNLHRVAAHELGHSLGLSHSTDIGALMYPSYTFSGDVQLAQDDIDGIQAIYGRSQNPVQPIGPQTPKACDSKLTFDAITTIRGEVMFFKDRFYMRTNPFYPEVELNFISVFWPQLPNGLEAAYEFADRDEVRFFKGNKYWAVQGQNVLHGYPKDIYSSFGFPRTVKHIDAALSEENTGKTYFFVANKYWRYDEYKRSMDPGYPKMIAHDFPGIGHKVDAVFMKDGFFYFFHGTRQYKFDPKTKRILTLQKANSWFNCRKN

[1] = biological target: T2, Disintegrin and metalloproteinase domain-containing protein 17 (Homo sapiens, UniProt P78536); type: functional, cell-based, THP-1
T2 sequence (P78536 whole entry, the tested form may be a part): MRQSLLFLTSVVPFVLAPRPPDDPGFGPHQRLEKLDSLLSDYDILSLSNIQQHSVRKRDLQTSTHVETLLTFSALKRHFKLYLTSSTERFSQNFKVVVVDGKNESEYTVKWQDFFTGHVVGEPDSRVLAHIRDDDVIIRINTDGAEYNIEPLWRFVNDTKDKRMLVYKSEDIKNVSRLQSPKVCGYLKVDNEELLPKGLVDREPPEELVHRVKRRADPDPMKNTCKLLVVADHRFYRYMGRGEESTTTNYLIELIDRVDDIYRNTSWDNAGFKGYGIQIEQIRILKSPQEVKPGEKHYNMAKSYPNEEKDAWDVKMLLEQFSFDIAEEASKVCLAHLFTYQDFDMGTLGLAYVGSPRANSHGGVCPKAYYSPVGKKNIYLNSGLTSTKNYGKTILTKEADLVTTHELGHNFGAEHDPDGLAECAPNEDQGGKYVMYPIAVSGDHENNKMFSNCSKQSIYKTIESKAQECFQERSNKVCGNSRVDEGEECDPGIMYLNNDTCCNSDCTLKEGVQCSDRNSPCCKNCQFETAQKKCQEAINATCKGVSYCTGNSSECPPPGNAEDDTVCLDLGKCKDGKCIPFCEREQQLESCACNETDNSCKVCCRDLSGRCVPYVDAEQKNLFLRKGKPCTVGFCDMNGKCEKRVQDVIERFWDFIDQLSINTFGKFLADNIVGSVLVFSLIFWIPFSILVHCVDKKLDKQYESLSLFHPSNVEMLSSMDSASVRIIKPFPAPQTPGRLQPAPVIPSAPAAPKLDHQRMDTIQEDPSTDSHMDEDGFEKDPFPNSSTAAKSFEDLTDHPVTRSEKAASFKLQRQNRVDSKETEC

[2] = biological target: T2, Disintegrin and metalloproteinase domain-containing protein 17
[3] = biological target: 72 kDa type IV collagenase (Homo sapiens, UniProt P08253)
Chain of 72 kDa type IV collagenase (P08253 whole entry): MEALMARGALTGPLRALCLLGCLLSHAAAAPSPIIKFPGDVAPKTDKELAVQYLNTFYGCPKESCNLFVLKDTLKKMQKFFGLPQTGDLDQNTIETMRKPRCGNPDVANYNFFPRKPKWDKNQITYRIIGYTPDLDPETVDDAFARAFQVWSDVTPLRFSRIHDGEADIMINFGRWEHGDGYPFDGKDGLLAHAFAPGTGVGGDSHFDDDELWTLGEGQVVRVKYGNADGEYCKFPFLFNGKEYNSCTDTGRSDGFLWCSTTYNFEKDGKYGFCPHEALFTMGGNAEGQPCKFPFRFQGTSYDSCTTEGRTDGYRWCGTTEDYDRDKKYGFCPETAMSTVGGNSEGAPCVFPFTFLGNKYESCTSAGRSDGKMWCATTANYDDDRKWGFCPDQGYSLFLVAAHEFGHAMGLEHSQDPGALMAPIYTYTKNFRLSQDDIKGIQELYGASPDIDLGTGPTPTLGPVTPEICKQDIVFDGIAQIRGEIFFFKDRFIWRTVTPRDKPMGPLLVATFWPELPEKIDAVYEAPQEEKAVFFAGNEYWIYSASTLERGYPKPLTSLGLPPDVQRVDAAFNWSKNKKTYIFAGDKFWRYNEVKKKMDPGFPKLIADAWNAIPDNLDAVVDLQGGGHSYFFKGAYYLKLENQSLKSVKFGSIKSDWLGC

| SMILES | IC50 (Interstitial collagenase) | IC50 [1] | IC50 [2] | IC50 [3] |
| --- | --- | --- | --- | --- |
| COCCOc1cc(CCC[C@H]2C(=O)N[C@H](C(=O)c3ccccc3)Cc3ccc(cc3)OCCCC[C@@H]2C(=O)NO)cc(OC)c1 | > 10000 nM | 15000 nM | 74 nM | – |
| CC1(C)SCCN(S(=O)(=O)c2ccc(Oc3cccnc3)cc2)[C@H]1C(=O)NO | 5.7 nM | – | – | – |
| COc1cc(CCC[C@H]2C(=O)N[C@H](C(=O)c3ccccc3)Cc3ccc(cc3)OCCCC[C@@H]2C(=O)NO)cc(OC)c1OC | > 10000 nM | – | – | – |
| COc1cc(Oc2ccc(S(=O)(=O)CC(C)C(=O)NO)cc2)cc(OC)c1OC (stereo not drawn) | > 10000 nM | – | – | 430 nM |
| COc1cc(Oc2ccc(S(=O)(=O)N3CCSC(C)(C)[C@@H]3C(=O)NO)cc2)cc(OC)c1OC | 26 nM | – | – | 21 nM |
| COc1cc(Oc2ccc(SCC(C)C(=O)NO)cc2)cc(OC)c1OC (stereo not drawn) | > 10000 nM | – | 180 nM | 3400 nM |
| COc1cc(CCC[C@H]2C(=O)N[C@H](C(=O)c3ccccc3)Cc3ccc(cc3)OCCCC[C@@H]2C(=O)NO)cc(OC)c1 | > 10000 nM | – | – | – |

More lines, now with the values ahead:

| IC50 (Interstitial collagenase) | IC50 [1] | IC50 [2] | IC50 [3] | SMILES |
| --- | --- | --- | --- | --- |
| – | 440 nM | 3.4 nM | – | CNC(=O)[C@@H]1Cc2ccc(cc2)OCCCC[C@H](C(=O)NO)[C@@H](CCCc2ccc(Cl)cc2)C(=O)N1 |
| > 10000 nM | 300 nM | 33 nM | – | CNC(=O)[C@@H]1Cc2ccc(cc2)OCCCC[C@H](C(=O)NO)[C@@H](CCCc2cc(C(F)(F)F)cc(C(F)(F)F)c2)C(=O)N1 |
| – | > 5000 nM | 87 nM | – | O=C(c1ccccc1)[C@@H]1Cc2ccc(cc2)OCCCC[C@H](C(=O)NO)[C@@H](CCCc2cc(Br)cc(Br)c2)C(=O)N1 |
| – | 4100 nM | 6.8 nM | – | CNC(=O)[C@@H]1Cc2ccc(cc2)OCCCC[C@H](C(=O)NO)[C@@H](CCCc2cc(OC)ccc2OC)C(=O)N1 |
| > 1000 nM | – | – | – | CNC(=O)[C@@H]1Cc2ccc(cc2)OCCCC[C@H](C(=O)NO)[C@@H](CCCc2cc(C)cc(C(C)C)c2)C(=O)N1 |
